pIC50: −log10 of the molar value. Where two headings read alike, the source gives them in different places. One block for each compound: values may come before it.
Legend:
[1] = target: T1, purified murine COX-2 (Mus musculus, UniProt Q05769); experiment: Inhibition of mCOX-2 dependent oxygenation of 2-AG and AA by profens in vitro; format: biochemical; design: made in house; host or cells: insect cells
T1 sequence (Q05769 18-604): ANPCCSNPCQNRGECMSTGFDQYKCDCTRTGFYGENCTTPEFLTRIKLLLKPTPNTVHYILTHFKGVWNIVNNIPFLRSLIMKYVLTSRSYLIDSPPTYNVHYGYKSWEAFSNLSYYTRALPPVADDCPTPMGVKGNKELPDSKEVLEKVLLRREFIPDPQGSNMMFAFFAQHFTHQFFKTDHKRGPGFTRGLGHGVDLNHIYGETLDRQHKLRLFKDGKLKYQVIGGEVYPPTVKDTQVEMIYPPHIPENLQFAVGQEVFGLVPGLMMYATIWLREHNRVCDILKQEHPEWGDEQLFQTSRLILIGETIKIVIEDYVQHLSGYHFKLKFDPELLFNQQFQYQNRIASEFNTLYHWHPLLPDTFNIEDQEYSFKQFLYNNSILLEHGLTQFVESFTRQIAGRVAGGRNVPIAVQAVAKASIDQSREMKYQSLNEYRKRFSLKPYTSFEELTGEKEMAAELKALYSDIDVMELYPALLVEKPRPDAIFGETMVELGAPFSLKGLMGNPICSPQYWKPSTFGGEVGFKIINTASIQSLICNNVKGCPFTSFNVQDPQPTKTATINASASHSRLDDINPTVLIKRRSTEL
Description: Desired concentrations of inhibitor in DMSO or blank (DMSO) were incubated with mCOX-2 (40 nM) for 3 minutes in 100 mM Tris-HCl with 0.5 mM phenol, pH 8.0 at 37° C. After pre-incubation of enzyme and inhibitor, 5 μM of AA or 2-AG was added at 37° C. Thirty seconds later, the reaction was quenched with 200 μL of ice-cold ethyl acetate containing 0.5% acetic acid (v/v) and 1 μM PGE2-d4 and PGE2-G-d5. The solution was then vortexed and the aqueous layer frozen. The organic layer was removed and evaporated to near-dryness under nitrogen. The samples were reconstituted in 1:1 MeOH:H2O and chromatographed using a LUNA® C18(2) column (50 2 mm, 3 μm; Phenomenex, Torrance, Calif., United States of America). […] Analyte peak areas were normalized to the appropriate internal standard to determine the amount of product formation, and inhibition was determined by normalization to a DMSO control.

[2] = target: T1, purified murine COX-2; experiment: Inhibition of mCOX-2-dependent oxygenation of 2-AG and AA by lumiracoxib and derivatives in vitro; format: biochemical; design: made in house; host or cells: insect cells; dose or concentration left out as unconfirmed
[3] = system: brain eCB, AA and PG levels; experiment: Brain eCB, NAE, MAG, AA and PG levels after i.p. injection; format: in vivo, mice; conditions: 40 mg/kg
Description: 5-7 week old male ICR mice were used for all experiments with the exception of knockout animals (Harlan, Indianapolis, Ind., United States of America). Mice were housed 5 per […]. All behavioral tests were conducted during the light cycle between 0900 and 1700. KO and WT littermate controls for FAAH^(−/−) and COX-2^(−/−) mice were derived from heterozygote breeding pairs, bred and genotyped as described in Uddin et al., 2011. CB1^(−/−) mice were bred from homozygote breeding pairs and genotyped as described in Pan et al., 2008. Mice were group-housed on a 12:12 light-dark cycle (lights on at 06:00), with food and water available ad libitum. All animal studies were approved by the Vanderbilt Institutional Animal Care and Use Committee and conducted in accordance with the Guide for the Care and Use of Laboratory Animals of the United States National Institutes of Health.
Mice were sacrificed by cervical dislocation and decapitation. The brain, lungs, liver, stomach, small intestines, and kidneys were then rapidly removed and frozen on a metal block in dry ice. The tissue was then placed in a tube and stored at −80° C. until extraction, usually one day after harvesting. For PG and eCB analysis, lipid extraction from tissue was carried out as described in Patel et al., 2009.
Analytes were quantified using LC-MS/MS on a Quantum triple-quadrupole mass spectrometer in positive-ion mode using selected reaction monitoring. Detection of eicosanoids was performed as described in Kingsley & Marnett, 2007. For fatty acid analysis the mobile phases used were 80 μM AgOAc with 0.1% (v/v) acetic acid in H2O (solvent A) and 120 μM AgOAc with 0.1% (v/v) acetic acid in MeOH (solvent B). The analytes were eluted using a gradient from 20% A to 99% B over 5 minutes. The transitions used were m/z 300→282 for PEA, m/z 328→310 for SEA, m/z 434→416 for OEA, m/z 456→438 for AEA, m/z 464→446 for AEA-d8, m/z 331→257 for 2-PG, m/z 359→285 for 2-SG, m/z 463→389 for 2-OG, m/z 485→411 for 2-AG, m/z 493→419 for 2-AG-d8, m/z 519→409 for AA, and m/z 527→417 for AA-d8. Peak areas for the analytes were normalized to the appropriate internal standard and then normalized to tissue mass for in vivo samples.

[4] = chiral profens, murine COX-2 40 nM, 3 min preincubation, 2-AG 5 μM, mean ± SD, read-out: IC50 (μM) 2-AG
[5] = chiral profens, at 10 μM inhibitor, AA 5 μM, read-out: % Inhibition AA
[6] = achiral profens, at 10 μM inhibitor, AA 5 μM, read-out: AA % Inhibition
[7] = achiral profens, murine COX-2 40 nM, 3 min preincubation, 2-AG 5 μM, 37° C., 30 s, mean ± SD, read-out: 2-AG IC50
[8] = read-out: Maximum inhibition of 2-AG oxygenation, achiral profens, at 10 μM inhibitor, 2-AG 5 μM
[9] = 15 min incubation, read-out: Maximum inhibition of AA oxygenation (converted)
[10] = inhibitor incubated with enzyme for 15 min before addition of substrate, read-out: AA IC50
[11] = 0.5 min, achiral profens, murine COX-2 40 nM, 3 min preincubation, 2-AG 5 μM, 37° C., 30 s, mean ± SD, read-out: 2-AG IC50

SMILES: C[C@H](C(=O)O)c1cccc(Oc2ccccc2)c1 [(S)-fenoprofen, reference compound]
- % Inhibition AA ([1]; chiral profens, at 10 μM inhibitor, AA 5 μM): 30%
- IC50 [1, 4]: 0.9 µM

- inhibition at 10 µM [1, 5]: 20%
- IC50 [1, 4]: 0.9 µM
SMILES: CC(C(=O)O)c1cccc(Oc2ccccc2)c1 (racemic) [Compound 6d, fenoprofen, reference compound]

- inhibition at 10 µM [1, 6]: 14%
- pIC50 [1, 7]: 5.26
SMILES: CC(C)Cc1ccc(CC(=O)O)cc1 [Compound 3c, 2-(4-isobutylphenyl)acetic acid]

- inhibition at 10 µM [1, 6]: 10%
- pIC50 [1, 7]: 5.39
- inhibition at 10 µM [1, 8]: 75%
SMILES: O=C(c1ccccc1)c1cccc(C2(C(=O)O)CC2)c1 [Compound 5e, 1-(3-benzoylphenyl)cyclopropanecarboxylic acid]

- inhibition [2, 9]: 55%
SMILES: O=C(O)Cc1ccccc1Nc1c(Cl)cc(Br)cc1Cl [Compound 116]

SMILES: O=C(O)Cc1ccccc1Nc1c(F)cccc1F [Compound 114]
- inhibition ([2]; read-out: AA IC50 (mM)): < 50%

SMILES: C[C@@H](C(=O)O)c1cccc(Oc2ccccc2)c1 [Compound 7d, (R)-Fenoprofen]
- inhibition at 10 µM [1, 5]: 10%
- inhibition at 10 µM ([1]; read-out: IC50 (μM) 2-AG): < 50%
- inhibition at 10 µM ([1]; read-out: Maximum inhibition of 2-AG oxygenation, chiral profens, at 10 μM inhibitor, 2-AG 5 μM): 25%

SMILES: O=C(O)Cc1ccccc1Nc1ccccc1Cl [Compound 110]
- inhibition ([2]; read-out: AA IC50 (mM)): < 50%

SMILES: O=C(O)Cc1ccccc1Nc1ccccc1 [Compound 112]
- inhibition ([2]; read-out: AA IC50 (mM)): < 50%

SMILES: C[C@@H](C(=O)O)c1cccc(C(=O)c2ccccc2)c1 [Compound 7e, (R)-ketoprofen]
- IC50 [1, 4]: 7.3 µM
- inhibition at 10 µM ([1]; read-out: % Inhibition AA): 20%
- inhibition at 10 µM ([1]; read-out: Maximum inhibition of 2-AG oxygenation): 56%

- inhibition [2, 9]: 10%
- inhibition [2, 10]: < 50%
SMILES: Cc1ccc(Nc2ccccc2)c(CC(=O)O)c1 [Compound 104]

- inhibition at 10 µM [1, 6]: 6%
- pIC50 [1, 7]: 5.47
- inhibition at 10 µM [1, 8]: 77%
SMILES: COc1ccc2cc(C3(C(=O)O)CC3)ccc2c1 [Compound 5b, 1-(6-methoxynaphthalen-2-yl)cyclopropanecarboxylic acid]

SMILES: Cc1ccc(Nc2c(F)cccc2Cl)c(CC(=O)O)c1 [Compound 101]
- inhibition ([2]; read-out: AA IC50 (mM)): < 50%

SMILES: O=C(Oc1ccc([N+](=O)[O-])cc1)N1CCC(C(O)(c2ccc3c(c2)OCO3)c2ccc3c(c2)OCO3)CC1 [JZL-184, reference compound]
- Brain levels of 2-AG and 3 other MAG species [3]: increased

- inhibition at 10 µM [1, 6]: 32%
- pIC50 [1, 7]: 5.52
SMILES: CC(C)(C(=O)O)c1cccc(C(=O)c2ccccc2)c1 [Compound 4e, 2-(3-benzoylphenyl)-2-methylpropanoic acid]

- inhibition at 10 µM [1, 6]: 24%
- pIC50 [1, 7]: 5.21
- inhibition at 10 µM [1, 8]: 68%
SMILES: O=C(O)Cc1cccc(Oc2ccccc2)c1 [Compound 3d, 2-(3-phenoxyphenyl)acetic acid]

- inhibition at 10 µM [1, 6]: 17%
- pIC50 [1, 7]: 5.14
- inhibition at 10 µM [1, 8]: 65%
SMILES: CC(C)(C(=O)O)c1cccc(Oc2ccccc2)c1 [Compound 4d, 2-methyl-2-(3-phenoxyphenyl)propanoic acid]

- inhibition [2, 9]: 0%
- inhibition [2, 10]: < 50%
SMILES: Cc1ccc(Nc2c(F)cccc2F)c(CC(=O)O)c1 [Compound 106]

- inhibition at 10 µM [1, 6]: 16%
- pIC50 [1, 7]: 5.85
SMILES: COc1ccc2cc(CC(=O)O)ccc2c1 [Compound 3b, 2-(6-methoxynaphthalen-2-yl)acetic acid]

- inhibition at 10 µM [1, 11]: < 50%
- inhibition at 10 µM [1, 6]: 7%
- inhibition at 10 µM [1, 8]: 12%
SMILES: COc1ccc2cc(C(C)(C)C(=O)O)ccc2c1 [Compound 4b, 2-(6-methoxynaphthalen-2-yl)-2-methylpropanoic acid]

- inhibition at 10 µM [1, 11]: < 50%
- inhibition at 10 µM [1, 6]: 5%
- inhibition at 10 µM [1, 8]: 5%
SMILES: CC(C)Cc1ccc(C(C)(C)C(=O)O)cc1 [Compound 4c, 2-(4-isobutylphenyl)-2-methylpropanoic acid]

- inhibition [2, 9]: 0%
- inhibition [2, 10]: < 50%
SMILES: Cc1ccc(Nc2ccccc2F)c(CC(=O)O)c1 [Compound 103]

SMILES: O=C(O)Cc1ccccc1Nc1c(F)cccc1Cl [Compound 109]
- inhibition ([2]; read-out: AA IC50 (mM)): < 50%

- inhibition [2, 9]: 32%
- inhibition [2, 10]: < 50%
SMILES: Cc1ccc(Nc2c(Cl)cc(Cl)cc2Cl)c(CC(=O)O)c1 [Compound 108]

- inhibition [2, 9]: 0%
- inhibition [2, 10]: < 50%
SMILES: Cc1ccc(Nc2ccccc2Cl)c(CC(=O)O)c1 [Compound 102]

- inhibition at 10 µM [1, 6]: 10%
- pIC50 [1, 7]: 6.30
SMILES: O=C(O)Cc1cccc(C(=O)c2ccccc2)c1 [Compound 3e, Desmethylketoprofen]

SMILES: C[C@H](C(=O)O)c1cccc(C(=O)c2ccccc2)c1 [(S)-ketoprofen, reference compound]
- IC50 [1, 4]: 0.2 µM
- inhibition at 10 µM ([1]; read-out: % Inhibition AA): 55%

- inhibition [2, 10]: < 50%
SMILES: Cc1ccc(Nc2c(C)cccc2F)c(CC(=O)O)c1 [Compound 107]

- inhibition [2, 9]: 0%
- inhibition [2, 10]: < 50%
SMILES: O=C(O)Cc1ccccc1Nc1ccccc1F [Compound 111]

- inhibition [2, 9]: 0%
- inhibition [2, 10]: < 50%
SMILES: Cc1cccc(F)c1Nc1ccccc1CC(=O)O [Compound 115]

SMILES: CC(C(=O)O)c1cccc(C(=O)c2ccccc2)c1 (racemic) [Compound 6e, ketoprofen, reference compound]
- IC50 [1, 4]: 0.3 µM
- inhibition at 10 µM ([1]; read-out: % Inhibition AA): 50%

- inhibition at 10 µM [1, 6]: 15%
- pIC50 [1, 7]: 5.30
SMILES: O=C(O)C1(c2cccc(Oc3ccccc3)c2)CC1 [Compound 5d, 1-(3-phenoxyphenol)cyclopropanecarboxylic acid]

- inhibition [2, 9]: 60%
SMILES: Cc1ccc(Nc2c(Cl)cccc2Cl)c(CC(=O)O)c1 [Compound 105]

- inhibition at 10 µM [1, 11]: < 50%
- inhibition at 10 µM [1, 6]: 10%
- inhibition at 10 µM [1, 8]: 45%
SMILES: CC(C)Cc1ccc(C2(C(=O)O)CC2)cc1 [Compound 5c, 1-(4-isobutylphenyl)cyclopropanecarboxylic acid]

Source: patent publication US20150183737A1, “COMPOSITIONS AND METHODS FOR SUBSTRATE-SELECTIVE INHIBITION OF ENDOCANNABINOID OXYGENATION” (Vanderbilt University, priority 2012, published 2015)
